Reference: patent publication US20200268786A1, “RNA CONTAINING COMPOSITIONS AND METHODS OF THEIR USE” (Icahn School of Medicine at Mount Sinai, priority 2015, published 2020)

System: human monocyte derived DCs (moDCs)
Test: cytokine production of human moDCs stimulated with ncRNA (DOTAP liposomal transfection or none)
Format: cell-based
Details: DOTAP liposomal transfection, 2 ug/ml ncRNA
Description: PCR products were purified by PCR-Cleanup (Qiagen) and controlled by electrophoresis (0.8% Agarose gel). RNAs were generated by in vitro transcription using the mMESSAGE mMACHINE T7 ultra kit (Ambion) followed by a capping and short polyA reaction. RNAs were then purified using RNA-cleanup (Qiagen), quantified using a nanodrop, and checked by electrophoresis after denaturation at 65° C. for 10 minutes (1 5% Agarose gel).
MoDCs and imBM were both stimulated by i-ncRNA in the same way. The culturing of these cells is described below. Briefly, cells were plated in 96 flat well plates at 200,000 cells per well for primary cells (MoDCs) and 100,000 cells per well for lines (IMBM). i-ncRNA were transfected via liposomes formed using DOTAP (Roche Life Science) at a ratio of 1 μg DNA per 6 μl DOTAP diluted in HBS following the user-guide recommendations. The cells were stimulated using 2 μg/ml of purified i-ncRNA versus 10 μg/ml total RNA. To stimulate the TLR4 pathway, 100 ng/ml Ultrapure LPS (Invivogen) was used for TLR2: 500 ng/ml Pam2CSK4 (Invivogen) for TLR3: 2 μg/ml HMW PolyIC (Invivogen) TLR7/8: 1 μg/ml CLO97 (Invivogen) and 100 ng/ml R848 (Invivogen) TLR9: CpG B-ODN 1826 3 μM or STING CDN 5 μg/ml (Aduro).
Human moDCs: Human monocyte derived DCs were differentiated as previously described (Frleta et al., “HIV-1 Infection-Induced Apoptotic Microparticles Inhibit Human DCs via CD44,” J. Clinical Invest. 122:4685 (2012), which is hereby incorporated by reference in its entirety). Briefly, PBMCs were prepared by centrifugation over Ficoll-Hypaque gradients (BioWhittaker) from healthy donor buffy coats (New York Blood Center). Monocytes were isolated from PBMCs by adherence and then treated with 100 U/ml GM-CSF (Leukine Sanofi Oncology) and 300 U/ml IL-4 (RandD) in RPMI plus 5% human AB serum (Gemini Bio Products). Differentiation media was renewed on day 2 and day 4 of culture. Mature moDCs were harvested for use on days 5 to 7. For all experiments, harvested DCs were washed and equilibrated in serum-free X-Vivo 15 media (Lonza).

Compound	IL-6 production	IL-12 production	TNFalpha production
CCOCc1nc2c(N)nc3ccccc3c2n1CC(C)(C)O [R848]	induced a cellular inflammatory response	induced a cellular inflammatory response	induced a cellular inflammatory response
Poly-IC	induced a cellular inflammatory response	induced a cellular inflammatory response	induced a cellular inflammatory response
